Reference: ChEMBL document CHEMBL1137683, “Synthesis and in vitro cysticidal activity of new benzimidazole derivatives” (Eur J Med Chem, 2009)

Columns and labels:
[1] = Octanol-water partition coefficient, log P of the compound; assay type: physicochemical
Taenia crassiceps [2] = experiment: Antiparasitic activity against Taenia crassiceps cysts ORF strain assessed as cysts mortality at 0.28 uM after 11 days by Trypan blue exclusion test; assay type: functional
Taenia crassiceps [3] = experiment: Antiparasitic activity against Taenia crassiceps cysts ORF strain assessed as cysts mortality at 1.70 uM after 11 days by Trypan blue exclusion test; assay type: functional
Taenia crassiceps [4] = experiment: Antiparasitic activity against Taenia crassiceps cysts WFU strain assessed as cysts mortality at 0.28 uM after 11 days by Trypan blue exclusion test; assay type: functional
Taenia crassiceps [5] = experiment: Antiparasitic activity against Taenia crassiceps cysts WFU strain assessed as cysts mortality at 1.70 uM after 11 days by Trypan blue exclusion test; assay type: functional

Compound | logP [1] | Activity (Taenia crassiceps [2]) [%] | Activity (Taenia crassiceps [3]) [%] | Activity (Taenia crassiceps [4]) [%] | Activity (Taenia crassiceps [5]) [%]
COC(=O)Nc1nc2cc(Oc3cccc4ccccc34)c(Cl)cc2[nH]1 | 3.56 | – | – | – | –
COC(=O)Nc1nc2cc(C(=O)OCc3ccc([N+](=O)[O-])cc3)ccc2[nH]1 | 3.12 | 41 | 68 | 22.6 | 26
CNC(=O)c1ccc2[nH]c(NC(=O)OC)nc2c1 | 0.68 | 0 | 0 | – | –
CCC[S+]([O-])c1ccc2[nH]c(NC(=O)OC)nc2c1 (stereo not given) [ALBENDAZOLE OXIDE] | 1.54 | 46 | 88 | 25 | 35
COC(=O)Nc1nc2cc(Cl)ccc2[nH]1 | 2.09 | 15 | 23 | 5 | 8
CCCSc1ccc2[nH]c(N(C)C(=O)OC)nc2c1 | – | 0 | 0 | – | –
CCCSc1ccc2c(c1)nc(NC(=O)OC)n2C | – | 0 | 0 | – | –
CCCSc1ccc2nc(NC(=O)OC)n(C)c2c1 | – | 0 | 0 | – | –
CSc1nc2cc(C(=O)N3CCCCC3)ccc2[nH]1 | – | 0 | 0 | – | –
COC(=O)Nc1nc2cc(C(=O)N3CCCCC3)ccc2[nH]1 | 1.65 | 37 | 62 | 9.3 | 16.7
CSc1nc2cc(C(=O)N3CCC(C)CC3)ccc2[nH]1 | – | 0 | 0 | – | –
CSc1nc2cc(C(=O)N3CCC(C)CC3)c(Cl)cc2[nH]1 | – | 0 | 0 | – | –
CSc1nc2cc(C(=O)N3CCN(C)CC3)ccc2[nH]1 | – | 0 | 0 | – | –
CSc1nc2cc(C(=O)N3CCCCC3)c(Cl)cc2[nH]1 | – | 0 | 0 | – | –
